Each compound was assayed against human PD-L1 / Human PD-1 (Homo sapiens (Human), UniProt Q9NZQ7) (assay: Enzyme-Linked Immunosorbent Assay (ELISA), PD-1/PD-L1 binding). Conditions: plate-coated human PD-L1, biotinylated human PD-1.
Sequence of human PD-L1 / Human PD-1 (Q9NZQ7 19-239): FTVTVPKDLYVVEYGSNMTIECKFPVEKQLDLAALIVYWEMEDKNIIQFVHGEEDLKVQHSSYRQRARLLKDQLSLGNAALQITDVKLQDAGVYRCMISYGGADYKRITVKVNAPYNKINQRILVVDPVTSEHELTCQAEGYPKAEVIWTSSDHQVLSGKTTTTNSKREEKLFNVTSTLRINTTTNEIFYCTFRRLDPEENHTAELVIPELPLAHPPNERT
Outline: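 Plates were coated with human PD-L1 at […]. Biotinylated human PD-1 (0.3 μg/mL) was added with 1:5 serially diluted compound for 1 h at 37 °C. Bound PD-1 was detected with streptavidin-HRP (1 h) and TMB (20 min), with absorbance read at 450 nm.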
For `Cc1c(OCCCN2CCC(O)CC2)cccc1-c1cccc2c1CCC2Oc1cc(OCc2cncc(C#N)c2)c(CN[C@H](C(=O)O)[C@@H](C)O)cc1Cl` (stereo partly drawn), the IC50 was under 5 nM.
For `Cc1c(OCCCN2CCC[C@H]2CO)cccc1-c1cccc2c1CC[C@@H]2Oc1cc(OCc2cncc(C#N)c2)c(CN[C@H](C(=O)O)[C@@H](C)O)cc1Cl`, the IC50 was under 5 nM.
Compound `Cc1c(OCCCN[C@@H]2CCCC[C@@H]2O)cccc1-c1cccc2c1CC[C@@H]2Oc1cc(OCc2cncc(C#N)c2)c(CN[C@H](C(=O)O)[C@@H](C)O)cc1Cl` has an IC50 of under 5 nM.
For `Cc1c(OCCCN2CCC(O)CC2)cccc1-c1cccc2c1CC[C@@H]2Oc1cc(OCc2cncc(C#N)c2)c(CN[C@H](C(=O)OC(C)(C)C)[C@@H](C)O)cc1Cl`, the IC50 was 5 to 500 nM.
`N#Cc1cncc(COc2cc(O[C@H]3CCc4c(-c5cccc(OCCCN6CCC(O)CC6)c5Cl)cccc43)c(Cl)cc2CN[C@@H]2CCCC[C@@H]2O)c1` was tested, and the IC50 was under 5 nM.
Work on `N#Cc1cncc(COc2cc(O[C@H]3CCc4c(-c5cccc(OCCCN6CCC(O)CC6)c5Cl)cccc43)c(Cl)cc2CNC(CO)CO)c1` yielded an IC50 of under 5 nM.
Compound `Cc1c(OCCCNC[C@@H](O)CO)cccc1-c1cccc2c1CC[C@@H]2Oc1cc(OCc2cncc(C#N)c2)c(CN[C@H](C(=O)O)[C@@H](C)O)cc1Cl` has an IC50 of under 5 nM.
Work on `C[C@@](CO)(NCc1cc(Cl)c(O[C@H]2CCc3c(-c4cccc(OCCCN5CC(O)C5)c4Cl)cccc32)cc1OCc1cncc(C#N)c1)C(=O)O` yielded an IC50 of under 5 nM.
Compound `Cc1c(OCCCN2CCC(O)CC2)cccc1-c1cccc2c1CC[C@H]2Oc1cc(OCc2cncc(C#N)c2)c(CN[C@H](C(=O)O)[C@@H](C)O)cc1Cl` has an IC50 of under 5 nM.
With `Cc1c(OCCCN2CCC(O)CC2)cccc1-c1cccc2c1CC[C@@H]2Oc1cc(OCCCN2CC[C@H](O)C2)c(CN[C@@H]2CCCC[C@@H]2O)cc1Cl` the IC50 was under 5 nM.
Compound `CCOc1cc(O[C@H]2CCc3c(-c4cccc(OCCCN5CC(O)C5)c4C)cccc32)c(Cl)cc1CN[C@@H](CO)C(=O)O` has an IC50 of under 5 nM.
`CCOc1cc(O[C@H]2CCc3c(-c4cccc(OCCCN5CCC(F)CC5)c4C)cccc32)c(Cl)cc1CN[C@@H](CO)C(=O)O` showed an IC50 of under 5 nM.
With `CCOc1cc(O[C@H]2CCc3c(-c4cccc(OCCCN5CC6(CC(O)C6)C5)c4C)cccc32)c(Cl)cc1CN[C@@H](CO)C(=O)O` the IC50 was under 5 nM.
With `CCOc1cc(O[C@H]2CCc3c(-c4cccc(OCCCN5CCC5(C)C)c4C)cccc32)c(Cl)cc1CN1CCNC(=O)CC1` the IC50 was 5 to 500 nM.
Work on `CCOc1cc(O[C@H]2CCc3c(-c4cccc(OCCCN5[C@H](C)CC[C@H]5C)c4C)cccc32)c(Cl)cc1CN1CCC(O)CC1` yielded an IC50 of 5 to 500 nM.
`CCOc1cc(O[C@H]2CCc3c(-c4cccc(OCCCN5[C@H](C)CC[C@H]5C)c4C)cccc32)c(Cl)cc1CN1CCC(C(=O)O)CC1` gave an IC50 of 5 to 500 nM.
`CCOc1cc(O[C@H]2CCc3c(-c4cccc(OCCCN5[C@H](C)CC[C@H]5C)c4C)cccc32)c(Cl)cc1CN1CCC(C(=O)OC)CC1` gave an IC50 of 5 to 500 nM.
`CCOc1cc(O[C@H]2CCc3c(-c4cccc(OCCCN5[C@H](C)CC[C@H]5C)c4C)cccc32)c(Cl)cc1CN1CCCC[C@@H]1C(=O)O` gave an IC50 of 5 to 500 nM.
With `CCOc1cc(O[C@H]2CCc3c(-c4cccc(OCCCN5[C@H](C)CC[C@H]5C)c4C)cccc32)c(Cl)cc1CN1CCC[C@H](C(=O)O)C1` the IC50 was 5 to 500 nM.
`CCOc1cc(O[C@H]2CCc3c(-c4cccc(OCCCN5[C@H](C)CC[C@H]5C)c4C)cccc32)c(Cl)cc1CN1CCC[C@@H](C(=O)O)C1` gave an IC50 of 5 to 500 nM.
In the case of `CCOc1cc(O[C@H]2CCc3c(-c4cccc(OCCCN5CCC5(C)C)c4C)cccc32)c(Cl)cc1CN(C)CCC(=O)O`, the IC50 is reported as 5 to 500 nM.
`Cc1c(OCCCN2CCC(O)CC2)cccc1-c1cccc2c1CC[C@@H]2Oc1cc(OCc2cncc(C#N)c2)c(CN(C)[C@H](C(=O)O)[C@@H](C)O)cc1Cl` showed an IC50 of under 5 nM.
With `CN(Cc1cc(Cl)c(O[C@H]2CCc3c(-c4cccc(OCCCN5CC(O)C5)c4Cl)cccc32)cc1OCc1cncc(C#N)c1)[C@@](C)(CO)C(=O)O` the IC50 was under 5 nM.
For `CCOc1cc(O[C@H]2CCc3c(-c4cccc(OCCCN5CCC5(C)C)c4C)cccc32)c(Cl)cc1CN(C)CCC(=O)OC`, the IC50 was 5 to 500 nM.
For `Cc1c(OCCCN2CCC(F)CC2)cccc1-c1cccc2c1CC[C@@H]2Oc1cc(OCc2cncc(C(N)=O)c2)c(CN(C)CCC(=O)O)cc1Cl`, the IC50 was under 5 nM.
Work on `CCOC(=O)CCN(C)Cc1cc(Cl)c(O[C@H]2CCc3c(-c4cccc(OCCCN5CCC5(C)C)c4C)cccc32)cc1OCC` yielded an IC50 of 5 to 500 nM.
For `CCOc1cc(O[C@H]2CCc3c(-c4cccc(OCCCN5CCC5(C)C)c4C)cccc32)c(Cl)cc1CN(C)CCC(=O)OC(C)(C)C`, the IC50 was 500 to 20000 nM.
`CCOc1cc(O[C@H]2CCc3c(-c4cccc(OCCCN5CCC5(C)C)c4C)cccc32)c(Cl)cc1CNCCc1nnn[nH]1` was tested, and the IC50 was 5 to 500 nM.
Compound `CCOc1cc(O[C@H]2CCc3c(-c4cccc(OCCCN5CCC5(C)C)c4C)cccc32)c(Cl)cc1CNCCn1nn[nH]c1=O` has an IC50 of 5 to 500 nM.
Compound `CCOc1cc(O[C@H]2CCc3c(-c4cccc(OCCCN5CCC5(C)C)c4C)cccc32)c(Cl)cc1CN(CC)CCC(=O)OC` has an IC50 of 5 to 500 nM.
`CCOc1cc(O[C@H]2CCc3c(-c4cccc(OCCCN5CCC5(C)C)c4C)cccc32)c(Cl)cc1CN(C)CCc1nnn[nH]1` gave an IC50 of 5 to 500 nM.
In the case of `CCOc1cc(O[C@H]2CCc3c(-c4cccc(OCCCN5CCC5(C)C)c4C)cccc32)c(Cl)cc1CN(C)CCn1nn[nH]c1=O`, the IC50 is reported as 5 to 500 nM.
`CCOc1cc(O[C@H]2CCc3c(-c4cccc(OCCCN5CCC5(C)C)c4C)cccc32)c(Cl)cc1CN(C)CCC(=O)OC(C)C` was tested, and the IC50 was 5 to 500 nM.
With `CCOc1cc(O[C@H]2CCc3c(-c4cccc(OCCCN5CCC5(C)C)c4C)cccc32)c(Cl)cc1CN(CC)CCC(=O)O` the IC50 was 5 to 500 nM.
Compound `CCOc1cc(O[C@H]2CCc3c(-c4cccc(OCCCN5CCC5(C)C)c4C)cccc32)c(Cl)cc1CN(C)CCCC(=O)OC` has an IC50 of 5 to 500 nM.
`CCOc1cc(O[C@H]2CCc3c(-c4cccc(OCCCN5CCC5(C)C)c4C)cccc32)c(Cl)cc1CN(C)CCCC(=O)O` gave an IC50 of under 5 nM.
`CCOc1cc(O[C@H]2CCc3c(-c4cccc(OCCCN5CCC5(C)C)c4C)cccc32)c(Cl)cc1CN(C)CC(C)(C)C(=O)O` was tested, and the IC50 was 5 to 500 nM.
For `CCOc1cc(O[C@H]2CCc3c(-c4cccc(OCCCN5CCC5(C)C)c4C)cccc32)c(Cl)cc1CN(C)C(C)CC(=O)O` (stereo partly drawn), the IC50 was 5 to 500 nM.
Compound `CCOc1cc(O[C@H]2CCc3c(-c4cccc(OCCCN5CCC5(C)C)c4C)cccc32)c(Cl)cc1CNCCS(=O)(=O)O` has an IC50 of 5 to 500 nM.
With `CCOc1cc(O[C@@H]2CCc3c(-c4cccc(OCCCN5CCC5(C)C)c4C)cccc32)c(Cl)cc1CN(C)CCC(=O)O` the IC50 was 500 to 20000 nM.
Work on `CCOc1cc(O[C@H]2CCc3c(-c4cccc(OCCCN5CCC5(C)C)c4C)cccc32)c(Cl)cc1CN(C)CC(C)C(=O)OC` (stereo partly drawn) yielded an IC50 of 500 to 20000 nM.
Compound `CCOc1cc(O[C@H]2CCc3c(-c4cccc(OCCCN5CCC5(C)C)c4C)cccc32)c(Cl)cc1CN(CCC(=O)O)C(C)C` has an IC50 of 5 to 500 nM.
Compound `CCOc1cc(O[C@H]2CCc3c(-c4cccc(OCCCN5CCC5(C)C)c4C)cccc32)c(Cl)cc1CN(C)CC(C)C(=O)O` (stereo partly drawn) has an IC50 of 5 to 500 nM.
Work on `CCOc1cc(O[C@H]2CCc3c(-c4cccc(OCCCN5CCC5(C)C)c4C)cccc32)c(Cl)cc1CN1CC[C@@H](C(=O)OC)C1` yielded an IC50 of 5 to 500 nM.
With `CCOc1cc(O[C@H]2CCc3c(-c4cccc(OCCCN5CCC5(C)C)c4C)cccc32)c(Cl)cc1CN1CC[C@H](C(=O)OC)C1` the IC50 was 5 to 500 nM.
Work on `Cc1c(OCCCN2CCC(F)CC2)cccc1-c1cccc2c1CC[C@@H]2Oc1cc(OCc2cncc(C#N)c2)c(CNCCS(=O)(=O)O)cc1Cl` yielded an IC50 of under 5 nM.
`CCOc1cc(O[C@H]2CCc3c(-c4cccc(OCCCN5CCC5(C)C)c4C)cccc32)c(Cl)cc1CN1CC[C@@H](C(=O)O)C1` gave an IC50 of 5 to 500 nM.
In the case of `CCOc1cc(O[C@H]2CCc3c(-c4cccc(OCCCN5CCC5(C)C)c4C)cccc32)c(Cl)cc1CNCCB(O)O`, the IC50 is reported as 5 to 500 nM.
Work on `CCOc1cc(O[C@H]2CCc3c(-c4cccc(OCCCN5CCC5(C)C)c4C)cccc32)c(Cl)cc1CN(C)CCCCC(=O)OC` yielded an IC50 of 5 to 500 nM.
`CCOc1cc(O[C@H]2CCc3c(-c4cccc(OCCCN5CCC5(C)C)c4C)cccc32)c(Cl)cc1CNCCCS(=O)(=O)O` gave an IC50 of 5 to 500 nM.
For `CCOc1cc(O[C@H]2CCc3c(-c4cccc(OCCCN5CCC5(C)C)c4C)cccc32)c(Cl)cc1CN(C)CCCCC(=O)O`, the IC50 was 5 to 500 nM.
Work on `N#Cc1cncc(COc2cc(O[C@H]3CCc4c(-c5cccc(OCCCN6CCC(F)CC6)c5Cl)cccc43)c(Cl)cc2CN[C@@H]2CCOC[C@H]2F)c1` [drawing 223] yielded an IC50 of 5 to 500 nM.
`N#Cc1cncc(COc2cc(O[C@H]3CCc4c(-c5cccc(OCCCN6CCC(F)CC6)c5Cl)cccc43)c(Cl)cc2CN[C@@H]2CCOC[C@H]2F)c1` [drawing 224] was tested, and the IC50 was 5 to 500 nM.
Compound `Cc1c(OCCCN2CCC(F)CC2)cccc1-c1cccc2c1CC[C@@H]2Oc1cc(OCc2cc(C#N)cc(C#N)c2)c(CN[C@H]2CCNC2=O)cc1Cl` [drawing 306] has an IC50 of 5 to 500 nM.
`Cc1c(OCCCN2CCC(F)CC2)cccc1-c1cccc2c1CC[C@@H]2Oc1cc(OCc2cc(C#N)cc(C#N)c2)c(CN[C@H]2CCNC2=O)cc1Cl` [drawing 345] showed an IC50 of 5 to 500 nM.
With `CCOc1cc(O[C@H]2CCc3c(-c4cccc(OCCCN5CCCC5(C)C)c4C)cccc32)c(Cl)cc1CNC[C@@H]1CCC(=O)N1` [drawing 377] the IC50 was 5 to 500 nM.
`CCOc1cc(O[C@H]2CCc3c(-c4cccc(OCCCN5CCCC5(C)C)c4C)cccc32)c(Cl)cc1CNC[C@@H]1CCC(=O)N1` [drawing 395] was tested, and the IC50 was under 5 nM.

Source: patent US10919852B2, “Immunomodulator compounds” (CHEMOCENTRYX, INC., priority 2017, dated 2021)
